Results published in PMC12860872, “Preclinical evaluation of DOTAGA.Glu.(FAPI)2 and DO3A.Glu.(FAPI)2 as theranostics with human dosimetry extrapolation to lutetium-177 and terbium-161 analogs” (European Journal of Nuclear Medicine and Molecular Imaging, 2025).

System: PC3-mice
Assay: Biodistribution in PC3-mice incl. blocking
Format: in vivo, mouse
Conditions: PC3-mice
Procedure: Male athymic Balb/C nude mice (6 weeks/20–25 g) were implanted with PC3 cells (3.5 × 10^6/100 µL PBS) into their right shoulder to develop tumors. The animals were used for biodistribution and PET/SPECT/CT imaging studies, once tumors reached 250–300 mm^3.
All mice were euthanized with intraperitoneal injection of pentobarbital (150 mg/kg), and selected organs were dissected, weighed, and measured for radioactivity using a gamma-counter. Results are expressed as % injected activity per gram tissue (% I.A./g), presented as mean ± SD (n = 3–4).

[1] = Blocking 4h (20 nmol unlabeled precursor)

Compound: N#C[C@@H]1CC(F)(F)CN1C(=O)CNC(=O)c1ccnc2ccc(OCCCCNC(=O)CC[C@H](NC(=O)CN3CCN(CC(=O)[O-])CCN(CC(=O)[O-])CCN(CC(=O)[O-])CC3)C(=O)NCCCCOc3ccc4nccc(C(=O)NCC(=O)N5CC(F)(F)C[C@H]5C#N)c4c3)cc12.[177Lu+3] [[^177Lu]Lu-DO3A.Glu.(FAPI)2]
- Uptake in Adrenal (4 h p.i.): 3.7±1 %I.A./g
- Uptake in Blood (4 h p.i.): 2.3±0.3 %I.A./g
- Uptake in Bone (4 h p.i.): 5.2±0.2 %I.A./g
- Uptake in Heart (4 h p.i.): 1.2±0.5 %I.A./g
- Uptake in Intestine (4 h p.i.): 0.9±0.4 %I.A./g
- Uptake in Kidney (4 h p.i.): 1.5±0.4 %I.A./g
- Uptake in Liver (4 h p.i.): 1.7±0.1 %I.A./g
- Uptake in Lung (4 h p.i.): 1.6±0.02 %I.A./g
- Uptake in Muscle (4 h p.i.): 1.9±0.3 %I.A./g
- Uptake in Pancreas (4 h p.i.): 2.3±0.4 %I.A./g
- Uptake in Salivary glands (4 h p.i.): 8.2±1.3 %I.A./g
- Uptake in Spleen (4 h p.i.): 1.2±0.1 %I.A./g
- Uptake in Stomach (4 h p.i.): 0.9±0.2 %I.A./g
- Uptake in Tumor (4 h p.i.): 15±1.3 %I.A./g
- Uptake in Adrenal (24 h p.i.): 1.5±0.2 %I.A./g
- Uptake in Blood (24 h p.i.): 0.9±0.1 %I.A./g
- Uptake in Bone (24 h p.i.): 2±0.1 %I.A./g
- Uptake in Gallbladder (24 h p.i.): 1.3±0.03 %I.A./g
- Uptake in Heart (24 h p.i.): 0.4±0.03 %I.A./g
- Uptake in Intestine (24 h p.i.): 0.4±0.1 %I.A./g
- Uptake in Kidney (24 h p.i.): 0.9±0.1 %I.A./g
- Uptake in Liver (24 h p.i.): 1.7±0.2 %I.A./g
- Uptake in Lung (24 h p.i.): 0.6±0.03 %I.A./g
- Uptake in Muscle (24 h p.i.): 1±0.1 %I.A./g
- Uptake in Pancreas (24 h p.i.): 1±0.05 %I.A./g
- Uptake in Salivary glands (24 h p.i.): 3.9±0.3 %I.A./g
- Uptake in Spleen (24 h p.i.): 0.8±0.05 %I.A./g
- Uptake in Stomach (24 h p.i.): 0.4±0.03 %I.A./g
- Uptake in Tumor (24 h p.i.): 7.5±1.2 %I.A./g
- Uptake in Adrenal (48 h p.i.): 1.1±0.5 %I.A./g
- Uptake in Blood (48 h p.i.): 0.2±0.03 %I.A./g
- Uptake in Bone (48 h p.i.): 1±0.1 %I.A./g
- Uptake in Gallbladder (48 h p.i.): 0.6±0.1 %I.A./g
- Uptake in Heart (48 h p.i.): 0.1±0.01 %I.A./g
- Uptake in Intestine (48 h p.i.): 0.1±0.04 %I.A./g
- Uptake in Kidney (48 h p.i.): 0.4±0.1 %I.A./g
- Uptake in Liver (48 h p.i.): 1.1±0.2 %I.A./g
- Uptake in Lung (48 h p.i.): 0.2±0.1 %I.A./g
- Uptake in Muscle (48 h p.i.): 0.4±0.04 %I.A./g
- Uptake in Pancreas (48 h p.i.): 0.3±0.01 %I.A./g
- Uptake in Salivary glands (48 h p.i.): 1.1±0.3 %I.A./g
- Uptake in Spleen (48 h p.i.): 0.5±0.05 %I.A./g
- Uptake in Stomach (48 h p.i.): 0.2±0.05 %I.A./g
- Uptake in Tumor (48 h p.i.): 3.1 ± 0.5 %I.A./g
- Uptake in Adrenal (72 h p.i.): 0.3±0.1 %I.A./g
- Uptake in Blood (72 h p.i.): 0.06±0 %I.A./g
- Uptake in Bone (72 h p.i.): 0.4±0.005 %I.A./g
- Uptake in Gallbladder (72 h p.i.): 0.4±0.2 %I.A./g
- Uptake in Heart (72 h p.i.): 0.04±0.01 %I.A./g
- Uptake in Intestine (72 h p.i.): 0.05±0.01 %I.A./g
- Uptake in Kidney (72 h p.i.): 0.2±0.02 %I.A./g
- Uptake in Liver (72 h p.i.): 0.8±0.1 %I.A./g
- Uptake in Lung (72 h p.i.): 0.1±0.01 %I.A./g
- Uptake in Muscle (72 h p.i.): 0.1±0.01 %I.A./g
- Uptake in Pancreas (72 h p.i.): 0.1±0.02 %I.A./g
- Uptake in Salivary glands (72 h p.i.): 0.3±0.1 %I.A./g
- Uptake in Spleen (72 h p.i.): 0.3±0.04 %I.A./g
- Uptake in Stomach (72 h p.i.): 0.05±0 %I.A./g
- Uptake in Tumor (72 h p.i.): 1.4±0.1 %I.A./g
- Uptake in Adrenal (96 h p.i.): 0.2±0.1 %I.A./g
- Uptake in Blood (96 h p.i.): 0.02±0.01 %I.A./g
- Uptake in Bone (96 h p.i.): 0.3±0.1 %I.A./g
- Uptake in Gallbladder (96 h p.i.): 0.1±0.02 %I.A./g
- Uptake in Heart (96 h p.i.): 0.02±0.01 %I.A./g
- Uptake in Intestine (96 h p.i.): 0.02±0.01 %I.A./g
- Uptake in Kidney (96 h p.i.): 0.1±0.01 %I.A./g
- Uptake in Liver (96 h p.i.): 0.7±0.1 %I.A./g
- Uptake in Lung (96 h p.i.): 0.1±0.1 %I.A./g
- Uptake in Muscle (96 h p.i.): 0.04±0 %I.A./g
- Uptake in Pancreas (96 h p.i.): 0.03±0.01 %I.A./g
- Uptake in Salivary glands (96 h p.i.): 0.1±0.03 %I.A./g
- Uptake in Spleen (96 h p.i.): 0.4±0.05 %I.A./g
- Uptake in Stomach (96 h p.i.): 0.03±0.01 %I.A./g
- Uptake in Tumor (96 h p.i.): 1±0.03 %I.A./g
- Uptake in Adrenal [1]: 0.3±0.04 %I.A./g
- Uptake in Blood [1]: 0.2±0.04 %I.A./g
- Uptake in Bone [1]: 0.4±0.1 %I.A./g
- Uptake in Heart [1]: 0.1±0.01 %I.A./g
- Uptake in Intestine [1]: 0.4±0.02 %I.A./g
- Uptake in Kidney [1]: 2.8±0.2 %I.A./g
- Uptake in Liver [1]: 1.1±0.01 %I.A./g
- Uptake in Lung [1]: 0.5±0.1 %I.A./g
- Uptake in Muscle [1]: 0.1±0.01 %I.A./g
- Uptake in Pancreas [1]: 0.1±0.01 %I.A./g
- Uptake in Salivary glands [1]: 0.3±0.01 %I.A./g
- Uptake in Spleen [1]: 0.4±0.03 %I.A./g
- Uptake in Stomach [1]: 0.2±0.1 %I.A./g
- Uptake in Tumor [1]: 1.1±0.4 %I.A./g
- tumor uptake (at 1 h p.i. as printed): ~ 15 %I.A./g
- drop of tumor uptake (washed-out) (at 24 h vs 4 h p.i.): ~ 50%
